This is an account of results in US20030129677A1, “Diagnostic method for screening complement regulatory protein levels” (priority 2000, published 2003).

The test deals with DAF (CD55) on MCF-7 breast cancer cells. In words: TNF-α modulation of DAF (CD55) on MCF-7 breast cancer cells (western blot, densitometry). It counts as cell-based. Conditions: MCF-7 cells, different concentrations of recombinant TNF-α for 18 hours. Here is the method: Estrogen primed and unprimed MCF-7 cells were treated with different concentrations of recombinant TNF-α for 18 hours. Estrogen primed cells were treated overnight with 20 ng/ml β estradiol. DAF protein was extracted by lysis treatment of cells and quantitated, run on SDS-PAGE followed by western blot analysis using anti DAF antibody. Bands were visualized by ECL method (Amersham). DAF levels were quantitated densitometrically and expressed as densitometric units.
A general note: A western blot detects proteins with antibodies after separation by electrophoresis.

With TNF-α, the “DAF (CD55) expression” value is reported as “upregulated CD55 in a dose dependent manner” (estrogenized conditions (primed overnight with 20 ng/ml β estradiol), FIG. 5) and “downregulated expression of CD55 in a dose dependent manner” (nonestrogenized conditions).
